The supplement of paper PMC10307832

Assays:
Assay in all cases: relative viability (nuclei count vs DMSO), 5 days (fraction); higher = more cells survive
[1] = compound: C1=CC2=C(C=C(C(=C2N=C1)O)N=NC3=CC4=C(C=C3)C=C(C=C4)S(=O)(=O)O)S(=O)(=O)O + Cc1nc(Nc2ncc(C(=O)Nc3c(C)cccc3Cl)s2)cc(N2CCN(CCO)CC2)n1 [Dasatinib] (partner 0.075 µM)
Method in brief: (§1)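 For relative viability, nuclei counts in treated wells were divided by those in vehicle wells. Lung cancer cell lines had been pin-tool dosed in 1536-well plates the day after seeding and cultured for 5 days, then fixed and stained in one step (final 0.05% Triton X-100, 1% formaldehyde, 1 ug/ml Hoechst) and imaged at 4×. Doses were one drug alone or a fixed anchor-drug dose plus five library-drug doses (not always all listed) in √10 steps, and values are duplicate-plate medians.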

AT-7519 + Bortezomib = compound: O=C(NC1CCNCC1)c1n[nH]cc1NC(=O)c1c(Cl)cccc1Cl [AT-7519] + CC(C)C[C@H](NC(=O)[C@H](Cc1ccccc1)NC(=O)c1cnccn1)B(O)O [Bortezomib] (partner 0.002 µM)
Method in brief: as §1

AT-7519 + Tozasertib = compound: O=C(NC1CCNCC1)c1n[nH]cc1NC(=O)c1c(Cl)cccc1Cl [AT-7519] + Cc1cc(Nc2cc(N3CCN(C)CC3)nc(Sc3ccc(NC(=O)C4CC4)cc3)n2)n[nH]1 [Tozasertib] (partner 0.1 µM)
Method in brief: as §1

AT-7519 + Pemetrexed = compound: O=C(NC1CCNCC1)c1n[nH]cc1NC(=O)c1c(Cl)cccc1Cl [AT-7519] + Nc1nc2[nH]cc(CCc3ccc(C(=O)N[C@@H](CCC(=O)O)C(=O)O)cc3)c2c(=O)[nH]1 [Pemetrexed] (partner 0.2 µM)
Method in brief: as §1

Cell Line | relative viability ([1]; first compound 0.08 µM) | relative viability ([1]; first compound 0.253 µM) | relative viability ([1]; first compound 0.8 µM) | relative viability ([1]; first compound 2.53 µM) | relative viability ([1]; first compound 8 µM) | relative viability (AT-7519 + Bortezomib; first compound 0.01 µM) | relative viability (AT-7519 + Bortezomib; first compound 0.03162 µM) | relative viability (AT-7519 + Bortezomib; first compound 0.3162 µM) | relative viability (AT-7519 + Bortezomib; first compound 1 µM) | relative viability (AT-7519 + Tozasertib; first compound 0.01 µM) | relative viability (AT-7519 + Tozasertib; first compound 0.03162 µM) | relative viability (AT-7519 + Tozasertib; first compound 0.3162 µM) | relative viability (AT-7519 + Tozasertib; first compound 1 µM) | relative viability (AT-7519 + Pemetrexed; first compound 0.01 µM) | relative viability (AT-7519 + Pemetrexed; first compound 0.03162 µM) | relative viability (AT-7519 + Pemetrexed; first compound 0.3162 µM) | relative viability (AT-7519 + Pemetrexed; first compound 1 µM)
NCI-H1975 | 0.388 | 0.356 | 0.343 | 0.4 | 0.388 | 0.352 | 0.301 | 0.433 | 0.202 | 0.609 | 0.7 | 0.626 | 0.133 | 0.304 | 0.302 | 0.306 | 0.181
NCI-H1993 | 0.579 | 0.648 | 0.633 | 0.594 | 0.566 | 0.987 | 0.979 | 1.07 | 0.683 | 0.547 | 0.584 | 0.544 | 0.506 | 0.536 | 0.581 | 0.522 | 0.532
NCI-H2009 | 0.261 | 0.275 | 0.288 | 0.313 | 0.283 | 1.08 | 0.908 | 0.96 | 0.704 | 0.751 | 0.72 | 0.703 | 0.515 | 1.11 | 0.932 | 1.08 | 0.869
NCI-H2023 | 0.689 | 0.622 | 0.558 | 0.648 | 0.541 | 1.12 | 0.985 | 0.855 | 0.503 | 0.362 | 0.379 | 0.295 | 0.135 | 0.203 | 0.233 | 0.203 | 0.111
NCI-H2085 | 0.277 | 0.253 | 0.254 | 0.208 | 0.291 | 1.22 | 1.04 | 0.995 | 0.964 | 0.768 | 0.853 | 0.787 | 0.819 | 0.924 | 1.01 | 0.901 | 0.986
NCI-H2087 | 0.962 | 0.872 | 0.715 | 0.847 | 0.884 | 0.82 | 1.05 | 0.811 | 0.51 | 0.255 | 0.269 | 0.282 | 0.0867 | 0.612 | 0.536 | 0.568 | 0.344
NCI-H2126 | 0.711 | 0.645 | 0.64 | 0.713 | 0.693 | 1.17 | 1.14 | 1.13 | 1.17 | 0.946 | 0.865 | 0.504 | 0.32 | 0.711 | 0.745 | 0.689 | 0.576
NCI-H2228 | 0.639 | 0.469 | 0.464 | 0.514 | 0.49 | 0.977 | 0.801 | 0.66 | 0.8 | 0.253 | 0.273 | 0.227 | 0.179 | 0.404 | 0.395 | 0.313 | 0.265
NCI-H2347 | 0.317 | 0.316 | 0.333 | 0.343 | 0.247 | 0.916 | 0.873 | 0.952 | 1.27 | 0.635 | 0.512 | 0.425 | 0.442 | 0.462 | 0.367 | 0.398 | 0.453
NCI-H2405 | 0.146 | 0.226 | 0.208 | 0.201 | 0.219 | 0.978 | 1.04 | 1.02 | 0.863 | 0.819 | 0.797 | 0.725 | 0.463 | 1.02 | 0.996 | 1.08 | 0.729
NCI-H3122 | 0.954 | 0.741 | 0.716 | 0.882 | 0.0807 | 1.03 | 1.01 | 1.06 | 0.688 | 0.535 | 0.41 | 0.175 | 0.136 | 0.215 | 0.209 | 0.173 | 0.176
PC-3 [JPC-3] | 1.11 | 0.98 | 1.03 | 1.05 | 1 | 0.947 | 0.863 | 0.86 | 0.848 | 0.93 | 0.903 | 0.88 | 0.902 | 1.05 | 1.1 | 1.11 | 1.47
PC-14 | 0.257 | 0.288 | 0.296 | 0.31 | 0.281 | 0.807 | 0.71 | 0.861 | 0.618 | 0.591 | 0.677 | 0.526 | 0.392 | 0.138 | 0.135 | 0.118 | 0.103
RERF-LC-KJ | 0.803 | 0.965 | 0.943 | 0.958 | 0.888 | 1.1 | 1.14 | 1.08 | 0.797 | 0.426 | 0.505 | 0.5 | 0.204 | 0.448 | 0.473 | 0.414 | 0.303
SK-LU-1 | 0.2 | 0.177 | 0.212 | 0.167 | 0.172 | 1.08 | 1.14 |  | 1.15 | 0.306 | 0.364 | 0.254 | 0.264 | 0.99 | 1 | 0.998 | 0.439
SW 1573 | 0.545 | 0.572 | 0.417 | 0.513 | 0.273 | 0.981 | 0.842 | 0.884 | 0.428 | 0.151 | 0.151 | 0.143 | 0.125 | 0.745 | 0.833 | 0.401 | 0.126
